For data set [1], the system named is Plasmodium falciparum. Nature of the data set: Antiplasmodial activity against chloroquine-resistant/mefloquine-sensitive Plasmodium falciparum W2 schizonts infected in human erythrocytes assessed as inhibition of parasite invasion at 10^-12 mol/L after 24 hrs by Diff-Quick staining based microscopic analysis relative to control. As to conditions: W2, 24 h. The format is functional.

Data set [2] concerns Plasmodium falciparum. In words: Antiplasmodial activity against chloroquine-resistant/mefloquine-sensitive Plasmodium falciparum W2 schizonts infected in human erythrocytes assessed as inhibition of parasite invasion after 24 hrs by Diff-Quick staining based microscopic analysis. The format is functional, organism-based. As to conditions: W2, 24 h.
In data set [3] the test system is Plasmodium falciparum. In words: Antiplasmodial activity against chloroquine-resistant/mefloquine-sensitive Plasmodium falciparum W2 schizonts infected in human erythrocytes assessed as parasite invasion after 24 hrs by Diff-Quick staining based microscopic analysis (reference value: 15.26 +/- 2.13%). The format is functional.
For data set [4], the system named is Plasmodium falciparum. In words: Antiplasmodial activity against chloroquine-resistant/mefloquine-sensitive Plasmodium falciparum W2 schizonts infected in human erythrocytes assessed as inhibition of parasite invasion at 10^-9 mol/L after 24 hrs by Diff-Quick staining based microscopic analysis relative to control. The format is functional. The note with it: W2, 24 h.

The test system of data set [5] is Plasmodium falciparum. Nature of the data set: Antiplasmodial activity against chloroquine-resistant/mefloquine-sensitive Plasmodium falciparum W2 schizonts infected in human erythrocytes assessed as inhibition of parasite invasion after 24 hrs by Diff-Quick staining based microscopic analysis relative to artemisinin. The class given is functional.
Data set [6] relates to Erythrocyte. Nature of the data set: Hemolytic activity against human RBC assessed as reduction in hemoglobin release at 10^-8 M after 24 hrs by spectrophotometric method relative to control. The note with it: 0.01 µM. The format is ADME, cell-based. Further details: scale not given: the % may be the effect or the level left.
In data set [7] the test system is Plasmodium falciparum. Nature of the data set: Antiplasmodial activity against chloroquine-resistant/mefloquine-sensitive Plasmodium falciparum W2 schizonts infected in human erythrocytes assessed as inhibition of parasite invasion at 10^-8 mol/L after 24 hrs by Diff-Quick staining based microscopic analysis relative to control. The class given is functional. The note with it: W2, 24 h.

Data set [8] concerns Plasmodium falciparum. Nature of the data set: Antiplasmodial activity against chloroquine-resistant/mefloquine-sensitive Plasmodium falciparum W2 schizonts infected in human erythrocytes assessed as inhibition of parasite invasion at 10^-6 mol/L after 24 hrs by Diff-Quick staining based microscopic analysis relative to control. The format is functional. The note with it: W2, 24 h.

The test system of data set [9] is Plasmodium falciparum. In words: Antiplasmodial activity against chloroquine-resistant/mefloquine-sensitive Plasmodium falciparum W2 schizonts infected in human erythrocytes assessed as inhibition of parasite invasion at 10^-10 mol/L after 24 hrs by Diff-Quick staining based microscopic analysis relative to control. The format is functional. The note with it: W2, 24 h.

Data set [10] deals with Erythrocyte. Nature of the data set: Hemolytic activity against human RBC assessed as reduction in hemoglobin release after 24 hrs by spectrophotometric method. The format is ADME, cell-based.
Data set [11] has as its system Plasmodium falciparum. Nature of the data set: Antiplasmodial activity against chloroquine-resistant/mefloquine-sensitive Plasmodium falciparum W2 schizonts infected in human erythrocytes assessed as inhibition of parasite invasion at 10^-11 mol/L after 24 hrs by Diff-Quick staining based microscopic analysis relative to control. The class given is functional. As to conditions: W2, 24 h.

The subject of data set [12] is Plasmodium falciparum. Nature of the data set: Antiplasmodial activity against chloroquine-resistant/mefloquine-sensitive Plasmodium falciparum W2 schizonts infected in human erythrocytes assessed as inhibition of parasite invasion at 10^-14 mol/L after 24 hrs by Diff-Quick staining based microscopic analysis relative to control. The class given is functional. As to conditions: W2, 24 h.

A short description of data set [13]: Therapeutic index, ratio of MHC for human RBC to MIC for chloroquine-resistant/mefloquine-sensitive Plasmodium falciparum W2 schizonts infected in human erythrocytes. The format is toxicity, cell-based. The note with it: read-out: TI.
For data set [14], the system named is Plasmodium falciparum. Nature of the data set: Antiplasmodial activity against chloroquine-resistant/mefloquine-sensitive Plasmodium falciparum W2 schizonts infected in human erythrocytes assessed as inhibition of parasite invasion at 10^-5 mol/L after 24 hrs by Diff-Quick staining based microscopic analysis relative to control. The class given is functional. The note with it: W2, 24 h.

The test system of data set [15] is Plasmodium falciparum. Nature of the data set: Antiplasmodial activity against chloroquine-resistant/mefloquine-sensitive Plasmodium falciparum W2 schizonts infected in human erythrocytes assessed as inhibition of parasite invasion at 10^-7 mol/L after 24 hrs by Diff-Quick staining based microscopic analysis relative to control. The format is functional. As to conditions: W2, 24 h.

Data set [16] has as its system Plasmodium falciparum. In words: Antiplasmodial activity against chloroquine-resistant/mefloquine-sensitive Plasmodium falciparum W2 schizonts infected in human erythrocytes assessed as inhibition of parasite invasion at 10^-4 mol/L after 24 hrs by Diff-Quick staining based microscopic analysis relative to control. As to conditions: W2, 24 h. The class given is functional.

Values after ≈ are worked out from the molar mass of the structure shown.

In general, inhibition refers to the change of the read-out against control, counted positive when it falls. Broadly, the IC50 is the concentration needed to halve the response being measured. One may read the MIC as the smallest concentration in the dilution series that meets the test's criterion for growth inhibition.

For `C1C2CC3CC1CC(C2)C31OOC12C1CC3CC(C1)CC2C3` (configuration not stated), the inhibition at 1 pM in the data set on Plasmodium falciparum [1] was 20.5 to 21.2%. Besides, in the data set on Plasmodium falciparum [2], the IC50 came out at 0.19 nM. Further, the Activity in the data set on Plasmodium falciparum [3] turned out to be 6.01%; with Erythrocyte [6], 2%. Besides, in the data set on Plasmodium falciparum [4], the inhibition at 0.001 µM fell in the range of 53.4 to 54.4%. The “fold change (FC)” value in the data set on Plasmodium falciparum [5] was 105. The inhibition at 0.01 µM in the data set on Plasmodium falciparum [7] lay within 64 to 65.8%. In addition, the inhibition at 1 µM with Plasmodium falciparum [8] is 65.6 to 67%. Also, the inhibition at 0.0001 µM in the data set on Plasmodium falciparum [9] was in the range of 36.2 to 38.8%. The MHC in the data set on Erythrocyte [10] turned out to be 1 ×10⁻⁶ M. Also, in the data set on Plasmodium falciparum [11], the inhibition at 10 pM fell in the range of 24.6 to 25.4%. Further, the inhibition at 10 fM in the data set on Plasmodium falciparum [12] was 16.7 to 18.4%.

For `CC1(C)OOC1(C)C`, the inhibition at 1 pM with Plasmodium falciparum [1] lay within 16.7 to 17.4%. Besides, the selectivity ratio in data set [13] worked out at 1e+07. Moreover, in the data set on Plasmodium falciparum [2], the IC50 was 45 nM and the MIC was 0.001 nM (≈ 0.000116 ng/mL). The inhibition at 10 µM in the data set on Plasmodium falciparum [14] was 81 to 84%. Besides, the Activity with Plasmodium falciparum [3] turned out to be 9.83%. The “fold change (FC)” value with Plasmodium falciparum [5] worked out at 0.45. Moreover, the Activity in the data set on Erythrocyte [6] came out at 1.4%. For the same molecule, the inhibition at 0.01 µM in the data set on Plasmodium falciparum [7] was 35.6 to 36.3%. The inhibition at 1 µM with Plasmodium falciparum [8] lay within 74.7 to 79.4%. Further, the inhibition at 0.0001 µM in the data set with Plasmodium falciparum [9] was 23.4 to 25.6%. Moreover, the MHC with Erythrocyte [10] is 1 ×10⁻⁵ M. The inhibition at 0.1 µM with Plasmodium falciparum [15] fell in the range of 60.2 to 60.3%.

Turning to `C[C@@H]1CC[C@H]2[C@@H](C)C(=O)O[C@@H]3O[C@@]4(C)CC[C@@H]1[C@]32OO4` [ARTEMISININ], the inhibition at 1 pM in the data set with Plasmodium falciparum [1] was 38.5 to 40.6%. Also, in the data set with Plasmodium falciparum [2], the IC50 lay in the range of 10 to 20 nM and the MIC amounted to 0.001 nM (≈ 0.000282 ng/mL). Moreover, the Activity in the data set with Plasmodium falciparum [3] is reported as 5.58%. Moreover, in the data set with Plasmodium falciparum [4], the inhibition at 0.001 µM lay in the range of 52.3 to 54%. For the same molecule, the inhibition at 100 µM with Plasmodium falciparum [16] came out at 100%. Besides, in the data set with Erythrocyte [6], the Activity amounted to 1.5%. Besides, the inhibition at 0.01 µM with Plasmodium falciparum [7] lay within 63.4 to 67.4%. Besides, in the data set on Plasmodium falciparum [8], the inhibition at 1 µM lay within 99 to 100%. For the same molecule, the inhibition at 0.0001 µM in the data set on Plasmodium falciparum [9] lay in the range of 43.1 to 48.7%. Also, the MHC in the data set with Erythrocyte [10] is 1 ×10⁻⁴ M. Also, the inhibition at 0.1 µM in the data set on Plasmodium falciparum [15] is 82.2 to 85.4%.

For the origin of these results see ChEMBL document CHEMBL4428111, “Antiplasmodial activity of alkyl-substituted 1,2-dioxetanes against Plasmodium falciparum” (Bioorg Med Chem Lett, 2016).
